# Assay results taken from article PMC9054634 (RSC Advances, 2020).
# Target: E. coli β-glucuronidase (GUS) (Escherichia coli, UniProt P05804)
# Assay: pNPG hydrolysis by purified GUS, UPLC-UV, Lineweaver-Burk kinetics
# Assay type: biochemical
# E. coli β-glucuronidase (GUS), sequence (P05804 whole entry): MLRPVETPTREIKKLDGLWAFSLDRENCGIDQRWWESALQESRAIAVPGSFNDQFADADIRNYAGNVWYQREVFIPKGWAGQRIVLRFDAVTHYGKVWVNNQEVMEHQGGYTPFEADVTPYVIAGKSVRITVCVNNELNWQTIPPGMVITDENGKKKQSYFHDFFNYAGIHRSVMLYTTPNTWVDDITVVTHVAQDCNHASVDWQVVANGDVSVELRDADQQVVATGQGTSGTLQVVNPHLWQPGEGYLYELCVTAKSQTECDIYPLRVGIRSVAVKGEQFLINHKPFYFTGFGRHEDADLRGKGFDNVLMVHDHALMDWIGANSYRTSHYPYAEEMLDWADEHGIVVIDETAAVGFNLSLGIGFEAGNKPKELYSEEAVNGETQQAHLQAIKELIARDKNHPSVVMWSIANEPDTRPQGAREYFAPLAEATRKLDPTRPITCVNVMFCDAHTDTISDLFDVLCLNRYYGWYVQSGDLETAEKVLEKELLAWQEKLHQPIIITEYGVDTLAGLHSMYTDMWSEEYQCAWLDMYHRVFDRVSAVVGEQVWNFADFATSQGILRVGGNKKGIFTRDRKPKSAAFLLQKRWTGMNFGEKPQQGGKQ
row,Ki [µM],Structure (SMILES)
1,31.4,"C[C@]12CC[C@@H]3c4ccc(O)cc4CC[C@H]3[C@@H]1CC[C@@H]2O [E2, Estradiol]"
2,16.6,"C=CCc1ccc(O)c(-c2cc(CC=C)ccc2O)c1 [Mag, Magnolol]"
3,56.9,"CN1CCN(CCCN2c3ccccc3Sc3ccc(C(F)(F)F)cc32)CC1 [TFP, Trifluoperazine]"
